The record followed here is patent US11179384B2, “Treatment of nonalcoholic fatty liver disease” (TAKEDA GMBH, priority 2016, dated 2021).

Holding throughout (format): in vivo
In assay [1] the test system is Female db/db mice. The assay can be described thus: HbA1c, 4 weeks treatment in db/db mice. The note with it: 28 days, vehicle 9.06%. As to the method: Female db/db mice were purchased from Taconic (Lille Skensved, Denmark) at 5-6 weeks of age and were maintained under standard conditions (5 animals/cage; 12 h light-dark cycle; room temperature of 22±2° C.; relative humidity of 60±15%). All mice had free access to water and standard chow (Provimi Kliba, Kaiseraugst, Switzerland). Four days upon arrival animals were randomized based on body weight and levels of glycated hemoglobin 1c (HbA1c). At 7 weeks of age, animals were treated daily by oral gavage with vehicle (4% methylcellulose) or with Compound A (composed in aqueous 4% methylcellulose) using doses of 1, 3 and 10 mg/kg s.i.d. (doses related to free base). The required dose was applied in a volume of 10 ml/kg body weight. Each dose group consisted of 10 animals. At the end of the treatment period plasma samples were isolated for determination of HbA1c levels. All experimental procedures were conducted according to the German Animal Protection Law.
HbA1c was analyzed from tail-tip-blood (HbA1c determination before treatment) as well as from blood collected from the retro-orbital venous plexus (HbA1c determination after 4 weeks treatment) using the Hemoglobin A1c Test (Siemens, Bad Nauheim, Germany).
Statistical analysis: Values are presented as means±SEM. Statistical differences were determined using one-way-ANOVA followed by a post-hoc analysis with Dunnet's correction (GraphPad Prism).

The test system of assay [2] is Homozygous LDLR-KO mice. The assay can be described thus: Prophylactic effects in a mouse model of NASH (LDLR-KO mice, mCDAA diet). The note with it: LDLR-KO mice on mCDAA diet, 1, 3 and 10 mg/kg p.o. QD for 7 weeks. As for the experimental part:
Prophylactic effects of Compound A on parameters such as a) hepatic fibrosis formation, b) hepatic triglyceride formation and c) plasma ALT reduction were examined in a rodent model of NASH.
Homozygous low-density lipoprotein receptor knockout (LDLR-KO) mice were fed with chow or modified choline deficient, L-amino acid-defined (mCDAA) diet (A08111307, Research Diets, USA). After 1 week under chow or mCDAA diet, the mice were orally dosed with Compound A (1, 3 and 10 mg/5 ml/kg, QD, n=10; suspension in 0.5 w/v % methylcellulose suspension) for 7 weeks.

Assay [3] deals with ob/ob mice. The assay can be described thus: Insulin tolerance test (insulin sensitivity) in ob/ob mice. The note with it: 29 days. As to the method: Male 5 weeks old ob/ob mice (B6.Cg-Lep^ob/J, genotype: Lep^ob/Leb^ob) and age-matched male lean mice (B6.Cg-Lep^ob/J, genotype: Lep^ob/+ * or Leb^+/+) were purchased from Charles River Laboratories, Japan Inc. All mice were fed with a normal chow (CE-2, CLEA Japan) and allowed free access to tap water. The animals were housed in a room with controlled temperature (23±1° C.), humidity (55±10%) and lightning (lights from 07:00 to 19:00). All experiments were approved by the Institutional Animal Care and Use Committee of Shonan Research Center, Takeda Pharmaceutical Company ltd (Japan).
All mice were housed individually in animal cages and used for the study at 7 weeks of age after 2 weeks of acclimation period. Blood samples were collected from the tail vein. Heparin and 2%-EDTA were used to inhibit the coagulation of the blood. Plasma was obtained by centrifugation. Plasma levels of glucose were measured using the automatic analyzer 7180 (Hitachi, Japan). Vehicle (0.5 w/v % methylcellulose, 10 ml/kg) and Compound A (3 and 10 mg/kg suspended in 0.5% methylcellulose solution) were orally administered once daily. After 28 days of administration, the insulin tolerance test (ITT) was performed. Mice were fasted for 6 h and then intraperitoneally administered with insulin (Novolin R, NovoNordisk) at a dose of 0.5 unit/5 ml/kg. Blood samples were collected from tail vein before and 15, 30, 60 and 120 min after the insulin administration. Plasma glucose (PG) level and ITT were measured using the method described above. […] AUC0-120 min of plasma glucose level was calculated using the following formula; [{(0 min PG)+(15 min PG)}×15+{(15 min PG)+(30 min PG)}×15+{(30 min PG)+(60 min PG)}×30+{(60 min PG)+[…]}×60]/2.
Data are expressed as mean and standard deviation (n=8 for ob/ob mice and n=5 for lean mice). The dose response trends of Compound A were assessed by one-tailed Williams' test or Shirley-Williams test. […] For evaluation of the effects of pioglitazone, statistical differences between vehicle and pioglitazone treated groups were analyzed with Student's t-test or Aspin-Welsh test. […]

For assay [4], the system named is Male C57BL/6J mice (DIO). The assay can be described thus: Body weight, fat and lean mass, 4 weeks treatment in diet-induced obese (DIO) mice. The note with it: for Body weight change from pretreatment (Day 0): mean±S.D., vehicle +3.8%. As to the method:
Male C57BL/6J mice were obtained from CLEA Japan, Inc. The mice were fed High fat diet D12451 (Research diets, Inc) from 5 week to 54-week old and water ad libitum.
All mice were housed individually in animal cages and used for the study after 2 weeks of acclimation period. Animal groups (n=7) were treated with either vehicle (0.5 w/v % methylcellulose, p.o.) or Compound A (1 mg/kg or 3 mg/kg, p.o. suspension in 0.5 w/v % methylcellulose solution) in the evening once a day for 4 weeks from 50 weeks of age. Body weight was measured 2 or 3 times per week. Regarding body composition fast mass and lean mass were measured.
Body composition (fat mass and lean mass) was measured by Echo-MRI-900 (ALOKA Japan).
All data are presented as mean±S.D. For evaluation of the effects of Compound A, statistical significances between vehicle (p.o.) and Compound A treated groups were analyzed with one-tailed Williams' test or Shirley-Williams test when the variances among the groups were homogeneous or heterogeneous, respectively. The p-values less than 0.025 were considered statistically significant in one-tailed Williams' test or Shirley-Williams test. Body weight change from pretreatment (Day 0) was calculated using the following formula: [(BW-BW at Day 0)/BW at Day 0]×100.

Setting [5] is: 1 mg/kg p.o. once a day for 4 weeks.
Setting [6] is: 1 and 3 mg/kg p.o. once a day for 4 weeks.

Consider `CCOc1cc2c(cc1OC)C(c1ccc(=O)n(C)c1)=N[C@@H]1CC[C@@H](O)C[C@H]21` [Compound A, 5-((2R,4aR,10bR)-9-Ethoxy-2-hydroxy-8-methoxy-1,2,3,4,4a,10b-hexahydro-phenanthridin-6-yl)-1-methyl-1H-pyridin-2-one], for which, in assay [1] (1 mg/kg p.o. daily, 1 mg/kg), the “mean HbA1c” value is on record as 7.27%. Besides, in assay [1] (3 mg/kg p.o. daily, 3 mg/kg), the “mean HbA1c” value is recorded as 7.06%. Moreover, in assay [1] (10 mg/kg p.o. daily, 10 mg/kg), the “mean HbA1c” value came to 6.16%. In addition, in assay [2], the Body weight entry is recorded as “slightly decreased”, the “Hepatic triglyceride (TG) content” value is “significantly reduced”, the Liver weight result is listed as “dose dependently decreased” and the “epididymal white adipose tissue (surrogate for body fat mass)” value is “dose dependently decreased”. Further, in assay [2], the food intake entry is listed as “no change” and the “plasma ALT levels” value is “significantly reduced”. Moreover, the hepatic fibrosis area result in assay [2] (started after 1 week of diet) is “dose-dependent reduction”. Further, in assay [3] (10 mg/kg/day p.o., ITT insulin 0.5 unit/kg i.p., vs vehicle), the “insulin-stimulated plasma glucose (PG) reduction at 60 min” value was “significantly enhanced”. For the same molecule, the “AUC of PG level (AUC0-120 min)” value in assay [3] (3 and 10 mg/kg/day p.o., ITT, statistical significance at 10 mg/kg/day) was “dose-dependently decreased”. In addition, the “declines in plasma glucose level at 60 min from the zero time value” in assay [3] (3 and 10 mg/kg/day p.o., ITT, vs vehicle) is reported as “significantly greater”. In assay [4] (setting [5]), the “body weight reduction corrected with vehicle-treated body weight change” value is −8.7±3.5% and the “Body weight change from pretreatment (Day 0)” value was −4.9±3.5%. For the same molecule, the “Body weight change from pretreatment (Day 0)” value in assay [4] (3 mg/kg p.o. once a day for 4 weeks) is given as −17.2±4.0%. Besides, the “body weight during the 4-week study period” value in assay [4] (1 and 3 mg/kg p.o. once a day) is on record as “durable body weight lowering effect”. Further, in assay [4] (setting [6]), the “fat mass (Echo-MRI)” value was “dose dependently and significantly decreased”; the “lean mass (Echo-MRI)” value is on record as “without affecting”.
